Measurements reported in PMC9465256, “Discovering monoacylglycerol lipase inhibitors by a combination of fluorogenic substrate assay and activity-based protein profiling” (Frontiers in Pharmacology, 2022).

Assays:
Assay type in all cases: biochemical
human ABHD12 = target: T1, human ABHD12 (Homo sapiens, UniProt Q8N2K0); assay: ABHD12 activity by competitive ABPP with FP-TAMRA; conditions: 100 µM compound; competitive ABPP with probe FP-TAMRA (250 nM); read-out: ABHD12 Inhibition (%)
T1 construct: expressed in transfected cells; host or cells: HEK293T (transient transfection; membrane fraction)
T1 sequence (Q8N2K0 1-398): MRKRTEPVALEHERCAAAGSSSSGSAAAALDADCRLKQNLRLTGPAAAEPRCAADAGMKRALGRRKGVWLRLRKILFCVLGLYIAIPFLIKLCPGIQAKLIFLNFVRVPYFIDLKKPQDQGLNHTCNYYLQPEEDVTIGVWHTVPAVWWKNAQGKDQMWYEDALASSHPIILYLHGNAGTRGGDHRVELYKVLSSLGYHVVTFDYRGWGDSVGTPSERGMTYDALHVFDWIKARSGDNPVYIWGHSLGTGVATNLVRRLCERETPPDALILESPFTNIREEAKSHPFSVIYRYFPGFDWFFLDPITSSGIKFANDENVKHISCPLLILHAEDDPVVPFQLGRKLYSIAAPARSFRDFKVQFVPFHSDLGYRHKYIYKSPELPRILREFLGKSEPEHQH
Protocol: (§1) HEK293T cells were cultured at 37°C under 5% CO2 in a DMEM medium with stable glutamine and phenolred, containing 10% fetal bovine serum (FBS, Gibco), penicillin, and streptomycin. The cells were passaged every 2–3 days by resuspension in the medium at ∼90% confluence. The membranes used in this study were prepared from transiently transfected HEK293T cells. Briefly, 1 day prior to transfection, ∼10^7 cells were seeded in 15 cm plates, and then the cells were transfected by the addition of a mixture of polyethyleneimine and plasmid DNA (3:1, 60, and 20 µg) in 2 ml of medium (without serum). Of note, the empty pcDNA3.1 vector was used in the Mock-control. After 24 h, the medium was removed and the cells were refreshed with fresh medium. After 72 h, the cells were harvested by suspending in 20 ml of medium, and the supernatant was removed by centrifugation for 10 min at 1,000 rpm. The cell pellet was flash frozen in liquid nitrogen and stored at −80°C until use. Subsequently, the cell pellets were suspended in lysis buffer (30 mM Tirs, pH 7.5, 1 mM MgCl2, 25 U/ml Benzonase), which was homogenized by sonication (3 × 10 bursts) and incubated for 30 min on ice. The membrane fractions overexpressing MAGL/ABHD6/ABHD12 were separated by ultracentrifuge (100,000 g, 30 min, 4 C). The protein concentration was determined with a Qubit protein assay (Invitrogen). The protein samples were quickly frozen in liquid nitrogen and stored at −80 C until use.
The ABHD12 activity assay is based on competitive activity-based protein profiling (ABPP) with human ABHD12 overexpressing membrane fractions. Briefly, the membrane proteome (1 mg/ml, 20 µl) was incubated at room temperature with 0.5 µl DMSO (vehicle) or inhibitor for 30 min. Subsequently, the samples were treated with the activity-based probe FP-TAMRA (250 nM, final concentration) for 20 min. The reactions were then quenched by 10 µl sample buffer (×4) (final concentrations: 60 mM Tris, pH 6.8, 2% (w/v) SDS, 10% (v/v) glycerol, 5% (v/v) β-mercaptoethanol, 0.01% (v/v) bromophenol blue). The samples were directly loaded and resolved on SDS-PAGE gel (10% acrylamide), which were then scanned using a ChemiDoc MP system (Cy3 settings, BioRad).

human ABHD6 = target: T2, human ABHD6 (Homo sapiens, UniProt Q9BV23); assay: ABHD6 activity assay (AA-HNA fluorogenic substrate); conditions: 100 µM, AA-HNA substrate assay, Supplementary Table 2; read-out: ABHD6 Inhibition (%)
T2 construct: expressed in transfected cells; host or cells: HEK293T (transient transfection; membrane fraction)
T2 sequence (Q9BV23 1-337): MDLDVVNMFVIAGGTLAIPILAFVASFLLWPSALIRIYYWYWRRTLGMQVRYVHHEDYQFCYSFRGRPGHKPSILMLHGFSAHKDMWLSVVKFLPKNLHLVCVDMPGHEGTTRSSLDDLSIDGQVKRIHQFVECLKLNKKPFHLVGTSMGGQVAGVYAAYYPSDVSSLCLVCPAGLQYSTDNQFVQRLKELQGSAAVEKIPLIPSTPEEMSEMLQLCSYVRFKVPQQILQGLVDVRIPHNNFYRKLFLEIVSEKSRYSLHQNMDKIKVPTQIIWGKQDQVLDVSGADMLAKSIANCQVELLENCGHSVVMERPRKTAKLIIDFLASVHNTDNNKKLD
Protocol: as §1
The MAGL activity assay is based on the hydrolysis of 2-arachidonoylglycerol-based fluorogenic substrate by MAGL-overexpressing membrane preparations from transiently transfected HEK293T cells. In brief, the reactions were performed in HEPES buffer (40 mM HEPES, pH 7.5, 0.1 mg/ml BSA) in black, flat bottom 96-well plates. The final protein concentration of membrane fractions from overexpressing human MAGL HEK293T cells was 12.5 μg/ml 5 µl of inhibitors were added from×40 concentrated DMSO stocks in the 96-well plate containing 145 µl assay buffer, followed by the addition of 40 µl of the protein (12.5 μg/ml). After the incubation of the inhibitor-protein complex for 30 min, 10 µl of the fluorogenic substrate (AA-HNA, 200 µM) was added and fluorescence was measured in 1 min intervals for 30 min on a plate reader (BioTek). Final assay concentrations: 12.5 μg/ml MAGL, […], and […] in the total volume of 200 µl. All the measurements were performed in N = 2, n = 2 for inhibitors and N = 2, n = 4 for controls with Z′ value ≥0.6. The slope is determined in 5–15 min for all the experiments.
The ABHD6 activity assay is based on the same principle as the MAGL activity assay described earlier, but with human ABHD6 overexpressing membrane preparations at a final protein concentration of 50 μg/ml and 200 µM AA-HNA. Other conditions are the same as those of the MAGL activity assay.

human MAGL = target: T3, human MAGL (Homo sapiens, UniProt Q99685); assay: MAGL activity assay (AA-HNA fluorogenic substrate); conditions: 100 µM, AA-HNA substrate assay, Supplementary Table 1; read-out: MAGL Inhibition (%)
T3 construct: expressed in transfected cells; host or cells: HEK293T (transient transfection; membrane fraction)
T3 sequence (Q99685 1-303): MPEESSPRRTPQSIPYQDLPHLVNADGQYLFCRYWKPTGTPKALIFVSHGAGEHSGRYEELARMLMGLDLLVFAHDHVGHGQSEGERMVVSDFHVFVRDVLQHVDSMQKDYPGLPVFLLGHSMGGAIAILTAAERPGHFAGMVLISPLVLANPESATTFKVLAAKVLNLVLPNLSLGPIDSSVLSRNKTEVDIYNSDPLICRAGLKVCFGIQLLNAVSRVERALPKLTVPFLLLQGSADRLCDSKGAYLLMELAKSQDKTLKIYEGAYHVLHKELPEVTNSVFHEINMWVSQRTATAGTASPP
Protocol: as §1
The MAGL activity assay is based on the hydrolysis of 2-arachidonoylglycerol-based fluorogenic substrate by MAGL-overexpressing membrane preparations from transiently transfected HEK293T cells. In brief, the reactions were performed in HEPES buffer (40 mM HEPES, pH 7.5, 0.1 mg/ml BSA) in black, flat bottom 96-well plates. […] After the incubation of the inhibitor-protein complex for 30 min, 10 µl of the fluorogenic substrate (AA-HNA, 200 µM) was added and fluorescence was measured in 1 min intervals for 30 min on a plate reader (BioTek). […] All the measurements were performed in N = 2, n = 2 for inhibitors and N = 2, n = 4 for controls with Z′ value ≥0.6. The slope is determined in 5–15 min for all the experiments.

Row | activity (human ABHD12) [%] | activity (human ABHD6) [%] | activity (human MAGL) [%] | Compound | activity at 100 µM (human ABHD12) [%] | activity at 100 µM (human ABHD6) [%] | activity at 100 µM (human MAGL) [%]
1 |  |  |  | CC1(C)[C@@H](O)CC[C@]2(C)[C@H]3C(=O)C=C4[C@@H]5C[C@@](C)(C(=O)O)CC[C@]5(C)CC[C@@]4(C)[C@]3(C)CC[C@@H]12 [compound 30, Enoxolone] | 89.1 | 92 | 95.9
2 |  |  |  | COc1ccc(-c2coc3cc(O)ccc3c2=O)cc1 [compound 31, Formononetin] | 77.5 | 94.1 | 103
3 |  |  |  | CC1(C)[C@@H](O[C@H]2O[C@H](C(=O)O)[C@@H](O)[C@H](O)[C@H]2O[C@@H]2O[C@H](C(=O)O)[C@@H](O)[C@H](O)[C@H]2O)CC[C@]2(C)[C@H]3C(=O)C=C4[C@@H]5C[C@@](C)(C(=O)O)CC[C@]5(C)CC[C@@]4(C)[C@]3(C)CC[C@@H]12 [compound 33, Glycyrrhizin] | 69.3 | 92.9 | 99.5
4 |  |  |  | CN(C)Cc1c[nH]c2ccccc12 [compound 35, Gramine] | 82.7 | 99 | 97.3
5 |  |  |  | COc1ccc([C@@H]2CC(=O)c3c(O)cc(O)cc3O2)cc1O [compound 37, Hesperetin] | 83.6 | 104 | 90.9
6 |  |  |  | C=CCc1ccc(O)c(-c2ccc(O)c(CC=C)c2)c1 [compound 39, Honokiol] | 104 | 83.9 | 111
7 | 70.8 | 95.4 | 97 | C[C@H](CCC(=O)O)[C@H]1CC[C@H]2[C@@H]3C[C@H](O)[C@@H]4C[C@H](O)CC[C@]4(C)[C@H]3CC[C@]12C [compound 40, Hyodeoxycholic] |  |  | 
8 |  |  |  | COc1ccc(-c2oc3c(CC=C(C)C)c(O[C@@H]4O[C@H](CO)[C@@H](O)[C@H](O)[C@H]4O)cc(O)c3c(=O)c2O[C@@H]2O[C@@H](C)[C@H](O)[C@@H](O)[C@H]2O)cc1 [compound 41, Icariin] | 66 | 84.6 | 84
9 | 80.9 | 101 | 70.6 | OCc1c[nH]c2ccccc12 [compound 42, Ndole-3-carbinol] |  |  | 
10 |  |  |  | O=c1c(O)c(-c2ccc(O)cc2)oc2cc(O)cc(O)c12 [compound 43, Kaempferol] | 30.2 | 84.3 | 32.2
11 |  |  |  | c1coc(CNc2ncnc3[nH]cnc23)c1 [compound 44, Kinetin] | 78.2 | 98.5 | 90.5
12 | 80.6 | 98.8 | 81.1 | C[C@@H]1O[C@@H](O)[C@H](O)[C@H](O)[C@H]1O [compound 45, L-(+)-Rhamnose Monohydrate] |  |  | 
13 |  |  |  | CC1(C)O[C@H]2CC(=O)OC[C@]23[C@H]2CC[C@@]4(C)[C@H](c5ccoc5)OC(=O)[C@H]5O[C@]54[C@]2(C)C(=O)C[C@@H]13 [compound 46, Limonin] | 83.1 | 103 | 90.6
14 |  |  |  | C=CCc1ccc(O)c(-c2cc(CC=C)ccc2O)c1 [compound 48, Magnolol] | 107 | 101 | 72.2
15 | 31.6 | 99.4 | 49.4 | O=c1c(O)c(-c2ccc(O)cc2O)oc2cc(O)cc(O)c12 [compound 51, Morin hydrate] |  |  | 
16 |  |  |  | O=c1c(O)c(-c2cc(O)c(O)c(O)c2)oc2cc(O)cc(O)c12 [compound 52, Myricetin] | 63.9 | 100 | 41.2
17 |  |  |  | CCn1cc(C(=O)O)c(=O)c2ccc(C)nc21 [compound 54, Nalidixic acid] | 82.2 | 100 | 143
18 |  |  |  | C[C@@H]1O[C@@H](O[C@H]2[C@H](Oc3cc(O)c4c(c3)O[C@H](c3ccc(O)cc3)CC4=O)O[C@H](CO)[C@@H](O)[C@@H]2O)[C@H](O)[C@H](O)[C@H]1O [compound 55, Naringin] | 81.4 | 104 | 104
19 |  |  |  | COc1ccc(CCC(=O)c2c(O)cc(O[C@@H]3O[C@H](CO)[C@@H](O)[C@H](O)[C@H]3O[C@@H]3O[C@@H](C)[C@H](O)[C@@H](O)[C@H]3O)cc2O)cc1O [compound 56, Neohesperidin dihydrochalcone] | 83.1 | 105 | 87.4

Row | Compound | activity (human ABHD12) [%] | activity (human ABHD6) [%] | activity (human MAGL) [%] | activity at 100 µM (human ABHD12) [%] | activity at 100 µM (human ABHD6) [%] | activity at 100 µM (human MAGL) [%]
20 | COc1cc(/C=C/C(=O)O)ccc1O [compound 32, Ferulic Acid] | 80.8 | 92.4 | 104 |  |  | 
21 | COc1ccc([C@@H]2CC(=O)c3c(O)cc(O[C@@H]4O[C@H](CO[C@@H]5O[C@@H](C)[C@H](O)[C@@H](O)[C@H]5O)[C@@H](O)[C@H](O)[C@H]4O)cc3O2)cc1O [compound 38, Hesperidin] | 76.6 | 94.3 | 91.4 |  |  | 
22 | O=C1CCC[C@@H]2[C@H]3CCCN4CCC[C@@H](CN12)[C@@H]34 [compound 49, (+)-Matrine] | 84.4 | 98.3 | 85.4 |  |  | 
